Source: US20240059658A1 (Emory University, priority 2019, published 2024)

Legend:
EU-1 = experiment: WST cytotoxicity assay, cancer cell EU-1; format: cell-based, human; conditions: Homo sapiens, EU-1, EU-1; no other cell line named in the cell; read-out: Cancer cell (EU-1) cytotoxicity IC50
Protocol: This study used two ALL cell lines (EU-1 and EU-3) and three NB cell lines (NB-1643, SHEP1 and LA1-55N). All 5 cancer cell lines were established from pediatric ALL or NB patients and were well-characterized for their expression of MDM2 and p53-status, as reported previously. All cell lines were grown in standard culture medium (RPMI 1640 containing 10% FBS, 2 mmol/L L-glutamine, 50 U penicillin and 50 μg/mL streptomycin) at 37° C. in a humidified atmosphere containing 5% CO2.
The cytotoxic effect of MX 69 and MX69 analogs on cancer cells was determined using the water-soluble tetrazolium salt (WST) assay. Briefly, cells cultured in 96-well microtiter plates were treated with different concentrations of AQ-101 for a 20-h period. WST (25 μg/well) was then added and incubation continued for an additional 4 h, after which optical density (OD) was read with a microplate reader (test wavelength of 450 nm; reference wavelength of 620 nm).

MDM2 = molecular target: T1, MDM2 (Homo sapiens, UniProt Q00987); experiment: MDM2 reduction / expression (Western blot); format: cell-based; conditions: words or +/− grades, key not given
T1 construct: ubiquitination of endogenous MDM2 in EU-1 cells; endogenous in cells; host or cells: EU-1 (ALL) cells
Protocol: Cells were lysed in a buffer composed of 50 mM Tris, pH 7.6, 150 mM NaCl, 1% Nonidet P-40, 10 mM sodium phosphate, 10 mM NaF, 1 mM sodium orthovanadate, 2 mM phenylmethylsulfonyl fluoride (PMSF), […], 10 μg/mL leupeptin and 10 μg/mL pepstatin. After centrifugation, the clarified cell lysate was separated from the pellet of cell debris, and then incubated with 15 μL Protein G/Protein A-agarose and 1 μg of antibodies, overnight at 4° C. For the Western blot, the resulting cell lysates or immunoprecipitates were resolved by SDS-PAGE. They were then transferred to a nitrocellulose filter and probed with the specific antibodies as listed in the supplemental Materials section. Finally, proteins were visualized with a chemiluminescent detection system.

T1 sequence (Q00987 whole entry): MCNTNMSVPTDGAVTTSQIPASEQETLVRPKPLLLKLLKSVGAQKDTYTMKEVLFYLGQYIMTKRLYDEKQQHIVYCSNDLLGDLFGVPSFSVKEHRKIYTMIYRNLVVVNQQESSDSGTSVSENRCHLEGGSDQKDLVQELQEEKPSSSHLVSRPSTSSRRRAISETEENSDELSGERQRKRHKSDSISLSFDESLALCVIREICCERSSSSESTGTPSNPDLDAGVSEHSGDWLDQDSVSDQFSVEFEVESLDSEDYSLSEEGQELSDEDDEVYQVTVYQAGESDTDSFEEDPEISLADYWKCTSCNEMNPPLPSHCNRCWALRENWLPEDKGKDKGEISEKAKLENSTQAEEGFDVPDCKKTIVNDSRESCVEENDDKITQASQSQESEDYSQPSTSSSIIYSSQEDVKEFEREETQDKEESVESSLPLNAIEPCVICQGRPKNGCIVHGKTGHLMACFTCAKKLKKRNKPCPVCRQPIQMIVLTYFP

Row | SMILES | MDM2 reduction (MDM2) | IC50 (EU-1) [nM]
1 | Cc1ccc(NS(=O)(=O)c2ccc3c(c2)C2OCC[C@H]2C(c2ccc(C(=O)C(C)C)cc2)N3)cc1C (stereo partly drawn) [Compound 69L96] | inhibition | 2080
2 | Cc1ccc(NS(=O)(=O)c2ccc3c(c2)[C@H]2OCC[C@H]2[C@H](C2CCNCC2)N3)cc1C [Compound 69L55] | No MDM2 | 1640
3 | Cc1ccc(NS(=O)(=O)c2ccc3c(c2)[C@H]2OCC[C@H]2[C@H](C2CCC(C(C)C)CC2)N3)cc1C (stereo partly drawn) [Compound 69L56, N-(3,4-dimethylphenyl)-4-(4-isopropylcyclohexyl)-2,3,3a,4,5,9b-hexahydrofuran[3,2-c]quinolone-8-sulfonamine] | inhibition | 10200
4 | CC(=O)c1cccc(NS(=O)(=O)c2ccc3c(c2)C2NCC[C@H]2[C@@H](c2ccc(C(=O)C(C)C)cc2)N3)c1 (stereo partly drawn) [69L130 trans] |  | > 10000
5 | CC(C)C(=O)c1cccc(C2CC(=O)c3cc(S(=O)(=O)Nc4ccc(Cl)c(Cl)c4)ccc3N2)c1 (stereo not drawn) [Compound 69L145] |  | 3500
6 | COC(=O)c1ccc([C@@H]2Nc3ccc(S(=O)(=O)Nc4ccc(C)c(C)c4)cc3[C@H]3C=CC[C@H]32)cc1 [Compound 69L16] |  | 4660
7 | CCC(=O)c1cccc(NS(=O)(=O)c2ccc3c(c2)C(=O)CC(c2ccc4c(c2)CCO4)N3)c1 (stereo not drawn) [Compound 69L129] |  | 650
8 | C=CC(=O)c1ccc(C2Nc3ccc(S(=O)(=O)Nc4ccc(C)c(C)c4)cc3[C@H]3OCC[C@@H]23)cc1 (stereo partly drawn) [Compound 69L71] |  | 30000
9 | CC(C)C(=O)c1cccc(C2Nc3ccc(S(=O)(=O)Nc4cccc(C(C)O)c4)cc3C3OCC[C@@H]23)c1 (stereo partly drawn) [Compound 69L122] |  | > 10000
10 | CC(=O)Nc1ccc(C2Nc3ccc(S(=O)(=O)Nc4ccc(C)c(C)c4)cc3C3OCC[C@@H]23)cc1 (stereo partly drawn) [Compound 69L51] |  | 4500
11 | Cc1cc(NS(=O)(=O)c2ccc3c(c2)[C@H]2OCC[C@H]2C(c2ccc(C(=O)C(C)C)cc2)N3)ccc1Cl (stereo partly drawn) [Compound 69L77] |  | 6290
12 | Cc1ccc(NS(=O)(=O)c2ccc3c(c2)C(O)C[C@H](c2ccc(C(=O)O)cc2)N3)cc1C (stereo partly drawn) [Compound 69L40] |  | > 50000
13 | O=S(=O)(Nc1ccc(Br)c(Br)c1)c1ccc2c(c1)[C@H]1OCC[C@H]1[C@H](C1CCCCC1)N2 [Compound 69L68] |  | 5100
14 | CC(C)c1cccc(C2CC(=O)c3cc(S(=O)(=O)Nc4ccc5c(c4)CCO5)ccc3N2)c1 (stereo not drawn) [Compound 69L138] |  | 1400
15 | COC(=O)c1ccc([C@@H]2Nc3cc(Cl)c(S(=O)(=O)Nc4ccc(C)c(C)c4)cc3[C@H]3OCC[C@H]32)cc1 [Compound 69L26] |  | > 50000
16 | Cc1ccc(NS(=O)(=O)c2ccc3c(c2)C(=O)CC(c2cccc(C(=O)C(C)C)c2)N3)cc1C#N (stereo not drawn) [Compound 69L156] |  | 540
17 | Cc1ccc(NS(=O)(=O)c2ccc3c(c2)[C@H]2OCC[C@H]2C(c2ccc(Br)cc2)N3)cc1C (stereo partly drawn) [Compound 69L8] |  | 3610
18 | O=S(=O)(Nc1ccc2c(c1)CCO2)c1ccc2c(c1)C1OCC[C@H]1C(c1ccc3c(c1)CCO3)N2 (stereo partly drawn) [Compound 69L128] |  | 1310
19 | Cc1ccc(N(C)S(=O)(=O)c2ccc3c(c2)[C@H]2OCC[C@H]2[C@@H](c2ccc(C(=O)C(C)C)cc2)N3)cc1C (stereo in doubt) [Compound 69L132, N-(3,4-dimethylphenyl)-4-(4-isobutyrylphenyl)-N-methyl-2,3,3a,4,5,9b-hexahydrofuro[3,2-c]quinoline-8-sulfonamide] |  | 1570
20 | Cc1ccc(NS(=O)(=O)c2ccc3c(c2)[C@H]2OCC[C@H]2C(c2ccc(-n4ccccc4=O)cc2)N3)cc1C (stereo partly drawn) [Compound 69L15] |  | 17900
21 | Cc1ccc(NS(=O)(=O)c2ccc3c(c2)C2OCC[C@H]2C(c2ccc(C(=O)C(C)C)cc2)N3)cc1 (stereo in doubt) [Compound 69L85, 4-(4-isobutyrylphenyl)-N-(p-tolyl)-2,3,3a,4,5,9b-hexahydrofuro[3,2-c]quinoline-8-sulfonamide] |  | 3330

Further lines, with some results ahead:

Row | MDM2 reduction (MDM2) | SMILES | IC50 (EU-1) [nM]
22 | inhibition | Cc1cccc(NS(=O)(=O)c2ccc3c(c2)[C@H]2OCC[C@H]2[C@H](c2ccc(C(=O)C(C)C)cc2)N3)c1 [Compound 69L95] | 1420
23 | No MDM2 | CC(=O)c1cccc(NS(=O)(=O)c2ccc3c(c2)[C@H]2OCC[C@H]2C(c2cccc(C(C)=O)c2)N3)c1 (stereo in doubt) [Compound 69L103, N,4-bis(3-acetylphenyl)-2,3,3a,4,5,9b-hexahydrofuro[3,2-c]quinoline-8-sulfonamide] | 970
24 | inhibition | Cc1cccc(NS(=O)(=O)c2ccc3c(c2)C(=O)CC(c2ccc(C(=O)C(C)C)cc2)N3)c1 (stereo not drawn) [Compound 69L99, 2-(4-isobutyrylphenyl)-4-oxo-N-(m-tolyl)-1,2,3,4-tetrahydroquinoline-6-sulfonamide] | 230
25 | inhibition | CC(=O)c1cccc(NS(=O)(=O)c2ccc3c(c2)C(=O)CC(c2cccc(C(C)=O)c2)N3)c1 (stereo not drawn) [Compound 69L121, N,2-bis(3-acetylphenyl)-4-oxo-1,2,3,4-tetrahydroquinoline-6-sulfonamide] | 180
26 | inhibition | CC(=O)c1cccc(C2CC(=O)c3cc(S(=O)(=O)Nc4ccc5c(c4)CCO5)ccc3N2)c1 (stereo not drawn) [Compound 69L123, 2-(3-acetylphenyl)-N-(2,3-dihydrobenzofuran-5-yl)-4-oxo-1,2,3,4-tetrahydroquinoline-6-sulfonamide] | < 100
27 | No MDM2 | CC(C)C(=O)c1ccc(C2Nc3ccc(S(=O)(=O)N[C@H]4CC[C@H](C)CC4)cc3[C@H]3OCC[C@@H]23)cc1 (stereo partly drawn) [Compound 69L78] | 3670
28 | inhibition | Cc1cc(NS(=O)(=O)c2ccc3c(c2)C(=O)CC(c2ccc(C(=O)C(C)C)cc2)N3)ccc1F (stereo not drawn) [Compound 69L108, N-(4-fluoro-3-methylphenyl)-2-(4-isobutyrylphenyl)-4-oxo-1,2,3,4-tetrahydroquinoline-6-sulfonamide] | 420
29 | No MDM2 | Cc1ccc(NS(=O)(=O)c2ccc3c(c2)[C@H]2OCC[C@H]2C(c2ccc(C(=O)C4CCCCC4)cc2)N3)cc1C (stereo partly drawn) [Compound 69L70] | 3090
30 | No MDM2 | Cc1ccc(NS(=O)(=O)c2ccc3c(c2)[C@H]2OCC[C@H]2C(c2ccc(C(=O)C(C)C)cc2)N3)cc1Cl (stereo partly drawn) [Compound 69L73, N-(3-chloro-4-methylphenyl)-4-(4-isobutyrylphenyl)-2,3,3a,4,5,9b-hexahydrofuran[3,2-c]quinolone-8-sulfonamide] | 1560
31 | No MDM2 | CC(C)c1ccc(C2Nc3ccc(S(=O)(=O)Nc4cccc(C(C)O)c4)cc3[C@H]3OCC[C@@H]23)cc1 (stereo partly drawn) [Compound 69L116] | 120
32 | No MDM2 | CC(=O)c1cccc(C2CC(=O)c3cc(S(=O)(=O)Nc4ccc(F)c(C)c4)ccc3N2)c1 (stereo not drawn) [Compound 69L109, 2-(3-acetylphenyl)-N-(4-fluoro-3-methylphenyl)-4-oxo-1,2,3,4-tetrahydroquinoline-6-sulfonamide] | 100
33 | inhibition | Cc1ccc(NS(=O)(=O)c2ccc3c(c2)C(=O)CC(c2ccc(C(=O)C(C)C)cc2)N3)cc1Cl (stereo not drawn) [Compound 69L107, N-(3-chloro-4-methylphenyl)-2-(4-isobutyrylphenyl)-4-oxo-1,2,3,4-tetrahydroquinoline-6-sulfonamide] | 930
34 | No MDM2 | Cc1ccc(NS(=O)(=O)c2ccc3c(c2)C2OCC[C@H]2C(c2cccc(C(=O)C(C)C)c2)N3)cc1C (stereo partly drawn) [Compound 69L94] | 3560
35 | inhibition | CC(=O)c1ccc(NS(=O)(=O)c2ccc3c(c2)[C@H]2OCC[C@H]2C(c2cccc(C(C)=O)c2)N3)cc1 (stereo in doubt) [Compound 69L101, 4-(3-acetylphenyl)-N-(4-acetylphenyl)-2,3,3a,4,5,9b-hexahydrofuro[3,2-c]quinoline-8-sulfonamide] | 1800
36 | No MDM2 | CC(C)C(=O)c1ccc(C2Nc3ccc(S(=O)(=O)Nc4ccc5c(c4)CCO5)cc3[C@H]3OCC[C@@H]23)cc1 (stereo partly drawn) [Compound 69L117] | 300
37 | No MDM2 | O=S(=O)(Nc1ccccc1)c1ccc2c(c1)[C@H]1OCC[C@H]1[C@H](C1CCCCC1)N2 [Compound 69L66] | 2560
38 | No MDM2 | CC(C)C(=O)c1ccc(C2Nc3ccc(S(=O)(=O)Nc4ccccc4)cc3[C@H]3OCC[C@@H]23)cc1 (stereo partly drawn) [Compound 69L75] | 3210
39 | No MDM2 | Cc1cc(NS(=O)(=O)c2ccc3c(c2)[C@H]2OCC[C@H]2C(c2ccc(C(=O)C(C)C)cc2)N3)ccc1F (stereo partly drawn) [Compound 69L79] | 2910
